Source: patent US8604053B2, “TRPV1 antagonists” (AbbVie Inc., priority 2008, dated 2013)

What was measured:
[1] = Rat telemetry protocol, core body temperature; type: in vivo; conditions: core body temperature of rats one hour post dosing, 100 μmol/kg p.o., relative to vehicle
Method: Male, Sprague Dawley rats, 225-250 grams were anesthetized with Sevoflurane (Abbott Laboratories). Rats were placed on a heating pad and covered with a sterile surgical drape. A ventral midline abdominal incision was made and sterile cotton tip applicators were used to gently move internal tissue and expose the abdominal aorta for implantation of the telemetry catheter (Data Sciences International; TL11M2-050-PXT). Blood flow was temporarily stopped to the lower extremities (5-7 min) with Diffenbach clamps to allow the insertion of the telemetry catheter into the abdominal aorta. Once inserted, a sterile cellulose patch was placed over the catheter/aorta and secured using a small amount of tissue adhesive (Vetbond, 3M). Once catheter placement was complete, the clamps were removed and blood flow was restored to the lower extremities. Thetransmitter was placed in the intraperitoneal cavity. The transmitter suture rib was sewn into the abdominal sutures to secure it in place. The skin was closed using sterile wound clips and the animal removed from Sevoflurane. Buprenex ([…] s.c.; Phoenix) was administered for post-operative analgesia. Animals were maintained on a heating pad until ambulatory, and then individually housed with food and water ad lib. Surgical staples were removed after 7-10 days post-implantation. Rats were allowed a 2-week post-surgical recovery period before treatment with test compound. Oral dosing (p.o.) was at time zero, with rats receiving a single dose of vehicle (10% EtOH, 20% Tween-80, 70% PEG-400) or a 100 μmol/kg dose of compound dissolved in vehicle. Temperature measurements were recorded every 15 minutes for the duration of the study (24 hours).
Representative compounds described herein have the novel property of having limited transient temperature effect on core body temperature of a mammal (e.g. rats). For example, compounds tested alter core body temperature of rats by less than about +0.5° C. at about 1 hour after administration of a single dose (100 μmol/kg) of the test compounds orally, for example, in the range from about −2.5° C. to less than about +0.5° C., from about −0.5° C. to less than about +0.5° C.; or from about −0.3° C. to about +0.3° C.
The term “core body temperature” as used herein, means the temperature measured in the intraperitoneal cavity.

[2] = biological target: T1, human TRPV1 receptor (hTRPV1) (Homo sapiens, UniProt Q8NER1); assay: Capsaicin activation assay (Ca2+ influx, FLIPR); type: cell-based; conditions: hTRPV1 in 1321N1 cells, 0.05 μM capsaicin
T1 construct: expressed in transfected cells
Method: Dulbecco's modified Eagle medium (D-MEM) (with 4.5 mg/mL glucose) and fetal bovine serum were obtained from Hyclone Laboratories, Inc. (Logan, Utah). Dulbecco's phosphate-buffered saline (D-PBS) (with 1 mg/mL glucose and 3.6 mg/l Na pyruvate, without phenol red), L-glutamine, hygromycin B, and Lipofectamine® were obtained from Life Technologies (Grand Island, N.Y.). G418 sulfate was obtained from Calbiochem-Novabiochem Corp. (San Diego, Calif.). Capsaicin (8-methyl-N-vanillyl-6-nonenamide) was obtained from Sigma-Aldrich, Co. (St. Louis, Mo.). Fluo-4 AM (N-[4-[6-[(acetyloxy)methoxy]-2,7-difluoro-3-oxo-3H-xanthen-9-yl]-2-[2-[2-[bis[2-[(acetyloxy)methoxy]-2-oxyethyl]amino]-5-methyl-phenoxy[ethoxy]phenyl]-N-[2-[(acetyloxy)methoxy]-2-oxyethyl]-glycine, (acetyloxy)methyl ester) was purchased from Molecular Probes (Eugene, Oreg.).
The cDNAs for the human TRPV1 receptor (hTRPV1) were isolated by reverse transcriptase-polymerase chain reaction (RT-PCR) from human small intestine poly A+ RNA supplied by Clontech (Palo Alto, Calif.) using primers designed surrounding the initiation and termination codons identical to the published sequences (Hayes et al. Pain 2000, 88, 205-215). The resulting cDNA PCR products were subcloned into pClneo mammalian expression vector (Promega) and fully sequenced using fluorescent dye-terminator reagents (Prism, Perkin-Elmer Applied Biosystems Division) and a Perkin-Elmer Applied Biosystems Model 373 DNA sequencer or Model 310 genetic analyzer. Expression plasmids encoding the hTRPV1 cDNA were transfected individually into 1321N1 human astrocytoma cells using Lipofectamine®. Forty-eight hours after transfection, the neomycin-resistant cells were selected with growth medium containing 800 μg/mL Geneticin (Gibco BRL). Surviving individual colonies were isolated and screened for TRPV1 receptor activity. Cells expressing recombinant homomeric TRPV1 receptors were maintained at 37° C. in D-MEM containing 4 mM L-glutamine, 300 μg/mL G418 (Cal-biochem) and 10% fetal bovine serum under a humidified 5% CO2 atmosphere.
The functional activity of compounds at the TRPV1 receptor was determined with a Ca^2+ influx assay and measurement of intracellular Ca^2+ levels ([Ca^2+]i). All compounds were tested over an 11-point half-log concentration range. Compound solutions were prepared in D-PBS (4× final concentration), and diluted serially across 96-well v-bottom tissue culture plates using a Biomek 2000 robotic automation workstation (Beckman-Coulter, Inc., Fullerton, Calif.). A 0.2 μM solution of the TRPV1 agonist capsaicin was also prepared in D-PBS. The fluorescent Ca^2+ chelating dye Fluo-4 AM was used as an indicator of the relative levels of [Ca^2+]i in a 96-well format using a Fluorescence Imaging Plate Reader (FLIPR)(Molecular Devices, Sunnyvale, Calif.). Cells were grown to confluency in 96-well black-walled tissue culture plates. Then, prior to the assay, the cells were loaded with 100 μL per well of Fluo-4 AM (2 μM, in D-PBS) for 1-2 hours at 23° C. Washing of the cells was performed to remove extracellular Fluo-4 AM (2×1 mL D-PBS per well), and afterward, the cells were placed in the reading chamber of the FLIPR instrument. 50 μL of the compound solutions were added to the cells at the 10 second time mark of the experimental run. Then, after a 3-minute time delay, 50 μL of the capsaicin solution was added at the, 190 second time mark (0.05 μM final concentration)(final volume=200 μL) to challenge the TRPV1 receptor. Time length of the experimental run was 240 seconds. Fluorescence readings were made at 1 to 5 second intervals over the course of the experimental run. The peak increase in relative fluorescence units (minus baseline) was calculated from the 190 second time mark to the end of the experimental run, and expressed as a percentage of the 0.05 μM capsaicin (control) response. […]

human TRPV1 = biological target: T2, human TRPV1 (Homo sapiens, UniProt Q8NER1); assay: Acid activation assay, ratiometric calcium imaging; type: cell-based; conditions: HEK293-F cells expressing human TRPV1, Example 56 at 3 μM; for block of TRPV1-mediated increase in intracellular calcium concentration in response to pH 5.5: acid pH 5.5; for block of TRPV1-mediated increase in intracellular calcium concentration in response to capsaicin: capsaicin 1 μM
T2 construct: expressed in transfected cells; host or cells: HEK293-F cells, transient transfection
Method: The differential effects of TRPV1 antagonists on capsaicin- or acid-induced responses were verified by ratiometric calcium imaging. Transiently transfected HEK293-F cells expressing human TRPV1 were incubated with 5 μM Fura-2AM for 30 minutes at 37° C. Intracellular calcium concentration was measured on an imaging system consisting of the X-Cite™ 120 Fluorescence Illumination System (EXFO) and a Digital Camera (C4742-95, Hamamatsu Photonics) connected to an Olympus 1×71 microscope. Through the control of Slide Book 4.2 software, fluorescence was measured during excitation at 340 and 380 nm; the ratio of the fluorescence at both excitation wavelengths (F340/F380) was monitored. D-PBS, pH 7.4 (Invitrogen, catalog no. 14287) was used as the extracellular solution. Acidic buffer was prepared by titrating D-PBS, pH 7.4 with 7 N HCl to pH 5.5. Agonists and antagonists were prepared in the pH 7.4 or 5.5 solutions. Rapid solution switch was achieved by using a ValveLink system.
Over the time 1250-second course, the cells were challenged sequentially with solutions containing Example 56 (3 μM), Example 56 (3 μM) plus capsaicin (1 μM), Example 56 (3 μM) plus acid (pH 5.5), or acid (pH 5.5) alone. The black bars above the traces designate addition and duration of solution applications. Spaces between horizontal bars represent periods in which cells were perfused with D-PBS, pH 7.4 alone. […]

T1 sequence (Q8NER1 whole entry): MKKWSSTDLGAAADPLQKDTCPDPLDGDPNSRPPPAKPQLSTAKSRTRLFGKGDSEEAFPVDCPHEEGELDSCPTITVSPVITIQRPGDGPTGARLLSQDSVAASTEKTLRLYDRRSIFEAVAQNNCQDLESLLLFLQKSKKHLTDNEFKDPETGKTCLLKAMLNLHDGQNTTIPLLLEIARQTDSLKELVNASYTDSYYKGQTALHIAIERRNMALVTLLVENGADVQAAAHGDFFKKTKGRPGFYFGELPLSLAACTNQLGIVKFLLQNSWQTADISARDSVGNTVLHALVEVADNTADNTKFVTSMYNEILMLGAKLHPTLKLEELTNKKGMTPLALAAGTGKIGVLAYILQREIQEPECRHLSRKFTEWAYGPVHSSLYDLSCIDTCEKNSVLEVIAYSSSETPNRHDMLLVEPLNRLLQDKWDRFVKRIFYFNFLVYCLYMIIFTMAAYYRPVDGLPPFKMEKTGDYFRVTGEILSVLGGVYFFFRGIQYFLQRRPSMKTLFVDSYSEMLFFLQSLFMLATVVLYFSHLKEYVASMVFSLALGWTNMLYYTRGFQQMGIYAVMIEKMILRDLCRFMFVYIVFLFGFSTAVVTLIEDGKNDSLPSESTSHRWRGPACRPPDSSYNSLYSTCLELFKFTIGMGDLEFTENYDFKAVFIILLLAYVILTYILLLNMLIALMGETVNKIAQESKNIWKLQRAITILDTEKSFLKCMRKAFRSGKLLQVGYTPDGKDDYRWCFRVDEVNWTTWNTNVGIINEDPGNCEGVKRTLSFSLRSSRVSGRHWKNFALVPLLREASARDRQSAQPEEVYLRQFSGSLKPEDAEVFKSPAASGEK
T2 sequence (Q8NER1 whole entry): as above

CCCC1(CCC)C[C@@H](NC(=O)Nc2cccc3c2cnn3C)c2cc(F)ccc2O1 [Example 61, N-[(4R)-6-fluoro-2,2-dipropyl-3,4-dihydro-2H-chromen-4-yl]-N′-(1-methyl-1H-indazol-4-yl)urea]
Δ Temp (° C.) [1]: 0.3 °C | IC50 [2]: 0.031 µM | block of TRPV1-mediated increase in intracellular calcium concentration in response to pH 5.5 (human TRPV1): did not completely block | block of TRPV1-mediated increase in intracellular calcium concentration in response to capsaicin (human TRPV1): completely blocked

CCC1(CC)C[C@@H](NC(=O)Nc2cccc3c2cnn3C)c2cccc(OC(F)(F)F)c2O1 [Example 55, N-[(4R)-2,2-diethyl-8-(trifluoromethoxy)-3,4-dihydro-2H-chromen-4-yl]-N′-(1-methyl-1H-indazol-4-yl)urea]
Δ Temp (° C.) [1]: 0.3 °C | IC50 [2]: 0.016 µM | block of TRPV1-mediated increase in intracellular calcium concentration in response to pH 5.5 (human TRPV1): did not completely block | block of TRPV1-mediated increase in intracellular calcium concentration in response to capsaicin (human TRPV1): completely blocked

CC(=O)Nc1nc2c(Oc3cc(N4CCN(C(C)c5ccc(F)cc5)CC4)ncn3)cccc2s1 (centres unmarked) [AMG 628, reference compound]
block of TRPV1-mediated increase in intracellular calcium concentration in response to pH 5.5 (human TRPV1): completely blocked | block of TRPV1-mediated increase in intracellular calcium concentration in response to capsaicin (human TRPV1): completely blocked

CCC1(CC)C[C@@H](NC(=O)Nc2cccc3c2cnn3C)c2cc(F)ccc2O1 [Example 26, N-[(4R)-2,2-diethyl-6-fluoro-3,4-dihydro-2H-chromen-4-yl]-N′-(1-methyl-1H-indazol-4-yl)urea]
Δ Temp (° C.) [1]: 0.1 °C | IC50 [2]: 0.05 µM | block of TRPV1-mediated increase in intracellular calcium concentration in response to pH 5.5 (human TRPV1): did not completely block | block of TRPV1-mediated increase in intracellular calcium concentration in response to capsaicin (human TRPV1): completely blocked
